Patent US20250313563A1, “GLYCOGEN SYNTHASE KINASE 3 INHIBITORS AND USES THEREOF” (The Broad Institute, Inc., priority 2022, published 2025)
Where two headings read alike, the source gives them in different places.

How the values were obtained:
[1] = target: GSK3b (GST-full length GSK3b) (Homo sapiens (Human), UniProt P49841); experiment: GSK3b TR-FRET kinase assay; assay type: biochemical
In short: (§1)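 IC50s came from the normalized 665/615 TR-FRET ratio after Tb-anti-pSer641 antibody and streptavidin-d2 detection of phosphorylated biotin-glycogen synthase peptide (200 nM). ATP was 4 μM for GSK3α, 2 μM for GSK3b, or 1 mM; 1 nM enzyme, 100 min, ambient, pH 7.5, after 30-min compound preincubation.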

[2] = target: GSK3α (GST-full length GSK3α) (Homo sapiens (Human), UniProt P49840); experiment: GSK3α TR-FRET kinase assay; assay type: biochemical
Sequence of GSK3α (GST-full length GSK3α) (P49840 whole entry): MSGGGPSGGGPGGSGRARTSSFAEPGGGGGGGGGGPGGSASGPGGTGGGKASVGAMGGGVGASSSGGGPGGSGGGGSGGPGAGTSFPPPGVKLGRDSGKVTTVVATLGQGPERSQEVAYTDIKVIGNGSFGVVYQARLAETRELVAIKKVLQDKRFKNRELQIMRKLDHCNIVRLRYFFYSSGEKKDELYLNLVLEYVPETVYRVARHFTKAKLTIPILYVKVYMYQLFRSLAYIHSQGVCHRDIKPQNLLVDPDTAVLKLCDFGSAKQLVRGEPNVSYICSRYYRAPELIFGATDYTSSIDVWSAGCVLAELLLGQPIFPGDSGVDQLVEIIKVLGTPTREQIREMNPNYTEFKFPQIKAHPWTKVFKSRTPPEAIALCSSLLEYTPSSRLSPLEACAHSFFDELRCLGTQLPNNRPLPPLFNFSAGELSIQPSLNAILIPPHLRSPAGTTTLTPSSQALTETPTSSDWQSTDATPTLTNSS
In short: as §1

[3] = 1 nM GSK3b, 2 μM ATP, 30 minute preincubation, Table 16, read-out: GSK3-B TR-FRET BIOCHEMICAL (TR-FRET)
[4] = 1 nM GSK3α, 4 μM ATP, 30 minute preincubation, Table 16, read-out: GSK3-A TR-FRET BIOCHEMICAL (TR-FRET)
[5] = read-out: GSK3-B (TR-FRET 1 mM ATP), GMean, IC50, 1 mM ATP, geometric mean
[6] = read-out: GSK3-A (TR-FRET 1 mM ATP), GMean, IC50, 1 mM ATP, geometric mean
[7] = 1 nM GSK3b, 2 μM ATP, 30 minute preincubation, read-out: GSK3-B TR-FRET BIOCHEMICAL (TR-FRET), IC50
[8] = 1 nM GSK3α, 4 μM ATP, 30 minute preincubation, read-out: GSK3-A TR-FRET BIOCHEMICAL (TR-FRET), IC50
[9] = 1 nM GSK3b, 2 μM ATP, 30 minute preincubation, Table 16, read-out: GSK3-B TR-FRET BIOCHEMICAL (TR-FRET), IC50
[10] = 1 nM GSK3α, 4 μM ATP, 30 minute preincubation, Table 16, read-out: GSK3-A TR-FRET BIOCHEMICAL (TR-FRET), IC50
[11] = GSK3-B (TR-FRET 1 mM ATP), GMean, IC50, 1 mM ATP, geometric mean
[12] = GSK3-A (TR-FRET 1 mM ATP), GMean, IC50, 1 mM ATP, geometric mean

Sequence of GSK3b (GST-full length GSK3b) (P49841 whole entry): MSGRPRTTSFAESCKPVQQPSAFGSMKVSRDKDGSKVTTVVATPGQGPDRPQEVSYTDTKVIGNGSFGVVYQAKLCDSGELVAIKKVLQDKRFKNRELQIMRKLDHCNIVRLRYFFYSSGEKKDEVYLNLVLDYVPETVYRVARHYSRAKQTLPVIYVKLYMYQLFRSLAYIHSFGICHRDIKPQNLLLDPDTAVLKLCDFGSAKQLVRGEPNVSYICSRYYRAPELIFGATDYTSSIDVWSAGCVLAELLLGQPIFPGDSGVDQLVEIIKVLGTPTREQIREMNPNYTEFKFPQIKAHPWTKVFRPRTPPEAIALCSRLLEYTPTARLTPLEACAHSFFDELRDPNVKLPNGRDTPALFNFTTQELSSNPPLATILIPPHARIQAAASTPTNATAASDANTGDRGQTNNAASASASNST

SMILES	IC50 [1, 3] [nM]	IC50 [2, 4] [nM]	other results
CC[C@]1(c2cccc(S(=O)(=O)C3CC3)c2)C2=C(CC(C)(C)CC2=O)Nc2n[nH]c(C(F)(F)F)c21 [Compound 945715]	≤ 100	≤ 100	
CC1(C)CC(=O)C2=C(C1)Nc1n[nH]cc1[C@@]21CCN(S(=O)(=O)c2ccccc2F)C1 [Compound 945719]	≤ 100	≤ 100	
CCC1(c2cccc(-c3cncn3C(C)C)c2)C2=C(CC(C)(C)CC2=O)Nc2n[nH]cc21 (centres unmarked) [Compound 945725]			IC50 [1, 5]: 100 to 1000 nM; IC50 [2, 6]: ≤ 100 nM
CC[C@]1(c2cccc(-c3cnn(C)c3C)c2)C2=C(CC(C)(C)NC2=O)Nc2n[nH]c(C)c21 [Compound 945727]			IC50 [1, 7]: > 5000 nM; IC50 [2, 8]: > 5000 nM
CC1(C)CC(=O)C2=C(C1)Nc1n[nH]cc1[C@@]21CCC[C@@H](C#N)C1 [Compound 945906]	100 to 1000	100 to 1000	
CCC1(c2cccc(C(F)(F)F)c2)C2=C(CC(C(C)(C)C)NC2=O)Nc2n[nH]cc21 (centres unmarked) [Compound 945921]			IC50 [1, 7]: > 5000 nM; IC50 [2, 8]: 1000 to 5000 nM
CC[C@]1(c2cccc(C(F)(F)F)c2)C2=C(C[C@@H](C(C)(C)C)NC2=O)Nc2n[nH]cc21 [Compound 945922]			IC50 [1, 7]: 100 to 1000 nM; IC50 [2, 8]: ≤ 100 nM
CCC1(c2cccc(C(F)(F)F)c2)C2=C(CC(C(C)(C)C)NC2=O)Nc2n[nH]cc21 (centres unmarked) [Compound 945923]			IC50 [1, 7]: > 5000 nM; IC50 [2, 8]: > 5000 nM
CCC1(c2cccc(-c3ccnc(C)c3C)c2)C2=C(CC(C)(C)NC2=O)Nc2n[nH]cc21 (centres unmarked) [Compound 945994]			IC50 [1, 7]: 100 to 1000 nM; IC50 [2, 8]: ≤ 100 nM
CC[C@]1(c2cccc(S(=O)(=O)C3CC3)c2)C2=C(CC(C)(C)NC2=O)Nc2n[nH]cc21 [Compound 945999]			IC50 [1, 7]: ≤ 100 nM; IC50 [2, 8]: ≤ 100 nM
CCC1(c2cccc(S(=O)(=O)C3CC3)c2)C2=C(CC(C)(C)NC2=O)Nc2n[nH]cc21 (centres unmarked) [Compound 946004]			IC50 [1, 7]: > 5000 nM; IC50 [2, 8]: 100 to 1000 nM
CC[C@@]1(c2ccccc2)C2=C(CC(C)(C)C(O)C2=O)Nc2n[nH]cc21 (some centres unmarked) [Compound 946056]	> 5000	100 to 1000	
CC1(C)CC(=O)C2=C(C1)Nc1n[nH]cc1[C@@]21CO[C@H](c2ccccc2)C1 [Compound 946072]	100 to 1000	≤ 100	
CC1(C)CC(=O)C2=C(C1)Nc1n[nH]cc1[C@@]21CO[C@@H](c2ccccc2)C1 [Compound 946073]	100 to 1000	≤ 100	
CC1(C)CC(=O)C2=C(C1)Nc1n[nH]cc1[C@]21CCC[C@H](C#N)C1 [Compound 946078]			IC50 [1, 9]: > 5000 nM; IC50 [2, 10]: 1000 to 5000 nM
CC1(C)CC(=O)C2=C(C1)Nc1n[nH]cc1[C@]21CCC[C@@H](C#N)C1 [Compound 946080]			IC50 [1, 9]: 1000 to 5000 nM; IC50 [2, 10]: 1000 to 5000 nM
Cc1ccc(S(=O)(=O)N2CCC3(CC2)C2=C(CC(C)(C)CC2=O)Nc2n[nH]cc23)cc1Cl [Compound 947241]	≤ 100	≤ 100	
CC1(C)CC(=O)C2=C(C1)Nc1n[nH]cc1C21CCN(S(=O)(=O)c2cccc(OC(F)F)c2)CC1 [Compound 947242]	≤ 100	≤ 100	IC50 [1, 11]: 100 to 1000 nM; IC50 [2, 12]: ≤ 100 nM
CC1(C)CC(=O)C2=C(C1)Nc1n[nH]cc1C21CCN(S(=O)(=O)c2cccc(Cl)c2)CC1 [Compound 947243]	≤ 100	≤ 100	IC50 [1, 11]: 1000 to 5000 nM; IC50 [2, 12]: 100 to 1000 nM
CC1(C)CC(=O)C2=C(C1)Nc1n[nH]cc1C21CCN(S(=O)(=O)c2cccc(C(F)(F)F)c2)CC1 [Compound 947244]	≤ 100	≤ 100	
COc1ccc(C)c(S(=O)(=O)N2CCC3(CC2)C2=C(CC(C)(C)CC2=O)Nc2n[nH]cc23)c1 [Compound 947245]	100 to 1000	≤ 100	
CC1(C)CC(=O)C2=C(C1)Nc1n[nH]cc1C21CCN(S(=O)(=O)c2ccc(OC(F)F)cc2)CC1 [Compound 947246]	≤ 100	≤ 100	IC50 [1, 11]: 100 to 1000 nM; IC50 [2, 12]: ≤ 100 nM
CN(C)C(=O)c1cccc(S(=O)(=O)N2CCC3(CC2)C2=C(CC(C)(C)CC2=O)Nc2n[nH]cc23)c1 [Compound 947247]	≤ 100	≤ 100	
CC1(C)CC(=O)C2=C(C1)Nc1n[nH]cc1C21CCN(S(=O)(=O)c2ccc(C(F)F)cc2)CC1 [Compound 947248]	≤ 100	≤ 100	
CC1(C)CC(=O)C2=C(C1)Nc1n[nH]cc1C21CCN(S(=O)(=O)c2cccc(Cl)c2Cl)CC1 [Compound 947249]	≤ 100	≤ 100	
COCc1ccc(S(=O)(=O)N2CCC3(CC2)C2=C(CC(C)(C)CC2=O)Nc2n[nH]cc23)cc1 [Compound 947250]	≤ 100	≤ 100	
CC1(C)CC(=O)C2=C(C1)Nc1n[nH]cc1C21CCN(S(=O)(=O)c2ccc(F)cn2)CC1 [Compound 947251]	100 to 1000	100 to 1000	

Now from value to molecule, other results behind:

IC50 [1, 3] [nM]	IC50 [2, 4] [nM]	SMILES	other results
≤ 100	≤ 100	CC[C@]1(c2cccc(-c3ccncc3O)c2)C2=C(CC(C)(C)CC2=O)Nc2n[nH]cc21 [Compound 945724]	IC50 [1, 5]: 1000 to 5000 nM; IC50 [2, 6]: 100 to 1000 nM
> 5000	1000 to 5000	CCc1cccc(N(C)c2cccc([C@]3(CC)C4=C(CC(C)(C)CC4=O)Nc4n[nH]cc43)c2)n1 [Compound 945726]	
> 5000	1000 to 5000	CC[C@@]1(c2cccc(-c3ccncc3O)c2)C2=C(CC(C)(C)CC2=O)Nc2n[nH]cc21 [Compound 945728]	
> 5000	100 to 1000	CCC1(c2cccc(Oc3cncnc3)c2)C2=C(CC(C)(C)CC2=O)Nc2n[nH]cc21 (centres unmarked) [Compound 945939]	
100 to 1000	≤ 100	CCC1(c2cccc(Nc3ncccn3)c2)C2=C(CC(C)(C)CC2=O)Nc2n[nH]cc21 (centres unmarked) [Compound 945943]	
> 5000	1000 to 5000	CCC1(c2cccc(Nc3ncccn3)c2)C2=C(CC(C)(C)CC2=O)Nc2n[nH]cc21 (centres unmarked) [Compound 945958]	
100 to 1000	≤ 100	CCC1(c2cccc(-c3ccnc(CCO)c3)c2)C2=C(CC(C)(C)CC2=O)Nc2n[nH]cc21 (centres unmarked) [Compound 945992]	
≤ 100	≤ 100	CC[C@]1(c2cccc(-c3cc(C)ncc3OC)c2)C2=C(CC(C)(C)CC2=O)Nc2n[nH]cc21 [Compound 945995]	IC50 [1, 5]: 1000 to 5000 nM; IC50 [2, 6]: 100 to 1000 nM
≤ 100	≤ 100	CC[C@]1(c2cccc(-c3ccnc(C)c3OC)c2)C2=C(CC(C)(C)CC2=O)Nc2n[nH]cc21 [Compound 945997]	IC50 [1, 5]: 1000 to 5000 nM; IC50 [2, 6]: 100 to 1000 nM
≤ 100	≤ 100	CCC1(c2cccc(S(=O)(=O)C3COC3)c2)C2=C(CC(C)(C)CC2=O)Nc2n[nH]cc21 (centres unmarked) [Compound 945998]	
> 5000	100 to 1000	CCC1(c2cccc(S(=O)(=O)C3COC3)c2)C2=C(CC(C)(C)CC2=O)Nc2n[nH]cc21 (centres unmarked) [Compound 946003]	
> 5000	100 to 1000	CCn1nccc1-c1cccc(C2(CC)C3=C(CC(C)(C)CC3=O)Nc3n[nH]cc32)c1 (centres unmarked) [Compound 946090]	
> 5000	1000 to 5000	CCC1(c2cccc(-c3ccnn3C(C)C)c2)C2=C(CC(C)(C)CC2=O)Nc2n[nH]cc21 (centres unmarked) [Compound 946092]	
≤ 100	≤ 100	CCCn1nccc1-c1cccc(C2(CC)C3=C(CC(C)(C)CC3=O)Nc3n[nH]cc32)c1 (centres unmarked) [Compound 946093]	IC50 [1, 5]: 100 to 1000 nM; IC50 [2, 6]: ≤ 100 nM
1000 to 5000	100 to 1000	CCCn1nccc1-c1cccc(C2(CC)C3=C(CC(C)(C)CC3=O)Nc3n[nH]cc32)c1 (centres unmarked) [Compound 946094]	
≤ 100	≤ 100	CCC1(c2cccc(-c3ccnn3CCC(C)C)c2)C2=C(CC(C)(C)CC2=O)Nc2n[nH]cc21 (centres unmarked) [Compound 946095]	
> 5000	100 to 1000	CCC1(c2cccc(-c3ccnn3CCC(C)C)c2)C2=C(CC(C)(C)CC2=O)Nc2n[nH]cc21 (centres unmarked) [Compound 946096]	
100 to 1000	≤ 100	CCC1(c2cccc(-c3cc(C)nn3C)c2)C2=C(CC(C)(C)CC2=O)Nc2n[nH]cc21 (centres unmarked) [Compound 946097]	
> 5000	1000 to 5000	CCC1(c2cccc(-c3ccnc(C)c3)c2)C2=C(Nc3n[nH]cc31)C(F)C(C)(C)CC2=O (centres unmarked) [Compound 946101]	
> 5000	1000 to 5000	CCC1(c2cccc(-c3ccnc(C)c3)c2)C2=C(Nc3n[nH]cc31)C(F)C(C)(C)CC2=O (centres unmarked) [Compound 946102]	
1000 to 5000	100 to 1000	CCC1(c2cccc(-c3ccnc(C)c3)c2)C2=C(Nc3n[nH]cc31)C(F)C(C)(C)CC2=O (centres unmarked) [Compound 946103]	IC50 [1, 5]: > 5000 nM; IC50 [2, 6]: > 5000 nM
100 to 1000	≤ 100	CCC1(c2cccc(-c3ccnc(C)c3)c2)C2=C(Nc3n[nH]cc31)C(F)C(C)(C)CC2=O (centres unmarked) [Compound 946104]	IC50 [1, 5]: > 5000 nM; IC50 [2, 6]: 100 to 1000 nM
